Data set [1] relates to P. aeruginosa. As to the kind of experiment: Serial passage/resistance assay. Particulars: continuous exposure to sub-lethal doses, 30 days. It counts as cell-based, Pseudomonas aeruginosa.
Data set [2] relates to Vibrio alginolyticus.
In data set [3] the test system is P. aeruginosa.
Data set [4] relates to Human umbilical vein endothelial cell (HUVEC). As to the kind of experiment: Cytotoxicity, resazurin cell viability. The class given is cell-based. The note with it: even at doses>80 μM. The protocol:
(§1) The toxicity of Michelicin on human cells was tested as previously described (Borie et al., 2017; Oyama et al., 2017). Briefly, human cells were cultured in Dulbecco's modified essential medium (DMEM) supplemented with 10% fetal calf serum (FCS), 1% L-glutamine and 1% antibiotics (all from Invitrogen). Cells were routinely grown in onto 25 cm^2 flasks maintained in a 5% CO2 incubator at 37° C. For toxicity assay, cells grown on 25 cm^2 flasks were detached using trypsin-EDTA solution (Thermofisher) and seeded into 96-well cell culture plates (Greiner Bio-one) at approximately 10^4 cells per well (counted using Mallasez's chamber). The cells were grown at 37° C. in a 5% CO2 incubator until they reached confluence (approximately 48-72 h of seeding). Wells were then aspirated and increasing concentrations of AMP were added to the cells and incubated for a further 48 h at 37° C. in a 5% CO2 incubator. The wells were then emptied, and cell viability was evaluated using resazurin based in vitro toxicity assay kit (Sigma-Aldrich) following manufacturer's instructions. Briefly, resazurin stock solution was diluted 1:100 in sterile PBS containing calcium and magnesium (PBS++, pH 7.4) and emptied wells were filled with 100 μL of the resazurin diluted solution. After 4 h incubation at 37° C. with the peptide treated cells, fluorescence intensity was measured using microplate reader (SynerMix, Bioteck) (excitation wavelength of 530 nm/emission wavelength of 590 nm). The fluorescence values were normalized by the controls and expressed as percentage of cell viability. The IC50 values of tested AMP on cell viability (i.e. the concentration of peptides causing a reduction of 50% of the cell viability) were calculated using GraphPad® Prism 7 software. Two cell lines were tested: Human Bronchial Epithelial Cell Line (BEAS; ATCC CRL-9609) and Human umbilical vein endothelial cell (HUVEC).
Background: The colour change of resazurin is a common sign of viable cells or microbes.

Data set [5] concerns Human Bronchial Epithelial Cell Line (BEAS; ATCC CRL-9609). As to the kind of experiment: Cytotoxicity, resazurin cell viability. The class given is cell-based. The note with it: even at doses>80 μM. The protocol: as §1
Data set [6] can be described thus: Cytotoxicity, resazurin cell viability. The class given is cell-based, human. The note with it: human, 80 μM, 48 h. The protocol: as §1
Data set [7] has as its system M. smegmatis mc^2155.
Data set [8] relates to human erythrocytes. Kind of data set: Haemolytic assay. It counts as cell-based. The protocol:
The hemolytic activity of the peptides was determined using fresh human erythrocytes from healthy donors. Blood was centrifuged and the erythrocytes were washed three times with a phosphate-buffered saline (PBS: 35 mM phosphate buffer/150 mM NaCl, pH 7.4). […] Samples were incubated at 37° C. for 60 min. After incubating the mixtures were centrifuged at 1,500 rpm for 10 min. The release of hemoglobin was monitored by measuring the absorbance (Abs) of the supernatant at 405 nm. Hemolytic rates of 0 and 100% were determined in PBS and 0.1% Triton X-100, respectively. The percentage of hemolysis was calculated by employing the following equation: Percentage hemolysis=[([…])/(Abs405 nm in 0.1% Triton X-100−Abs405 nm in PBS)]×100.

Data set [9] relates to Mycobacterium tuberculosis mc^26230.
Data set [10] relates to human lung fibroblasts (IMR90 cells (ATCC CCL-186)). As to the kind of experiment: Cytotoxicity. The class given is cell-based. Particulars: even at doses>80 μM.
Data set [11] has as its system B. subtilis nisin resistant (DSMZ 347). The note with it: Table IV, strain description.
Data set [12] concerns Bacillus subtilis (ATCC 6633). Kind of data set: MIC, broth microdilution. It counts as cell-based. Particulars: Table IV, strain description. The protocol:
To standardize the bacterial cell suspension for assay of antibacterial activity, some colonies of each strain grown overnight on MHA (Mueller Hinton Agar. ROTH) plates were suspended in MHB (Mueller Hinton Broth. ROTH) or MHB saline (Mueller Hinton Broth containing 565 mM NaCl) and incubated at 37° C. or 30° C. until visible turbid. This log-phase inoculum was diluted 1:100 in the same culture media. Using sterile 96-well microtiter plates (CELLSTAR. Greiner bio-one), serial 2-fold dilutions (40 to 0.78 μM) of each peptide were prepared in cation-adjusted acetic acid 0.02% with 0.4% BSA (Bovin Serum Albumin fraction V. Boehringer) at a volume of 10 μL/well. Each well was inoculated with 100 μL of the standardized bacterial inoculum, corresponding to a final test concentration of about 10^5 CFU/mL. Antimicrobial activities were expressed as the MIC (Minimal Inhibitory Concentration), the lowest concentration of peptide at which 100% inhibition of microbial growth was observed after 24 h of incubation at 37° C. or 30° C. by measuring OD600 in a microtiter plate reader. The minimal bactericidal concentration (MBC) was defined as the peptide concentration where no colony growth was observed.
The same experiments as described in 1) were performed. For the evaluation of antimicrobial activity against some other strains, a resazurin microtiter assay was used as explained hereinafter.
In general terms: In broth dilution the organism is exposed to a series of concentrations in liquid medium.

Data set [13] has as its system P. aeruginosa. Kind of data set: Membrane permeabilization assay (propidium iodide). It counts as cell-based, Pseudomonas aeruginosa. Particulars: 2.5 min of incubation, 37° C., 3 times their MIC; CTAB at 300 μM. The protocol: Several tests were performed to determine the mechanism of the antimicrobial activity of the peptides of the invention. Most of the cationic AMP can increase the permeability of the bacterial membrane through pore-forming activity. We evaluated the ability of Michelicin to cause pore-formation using P. aeruginosa as model bacteria. Permeabilization of the bacterial membrane by Michelicin was evaluated using the cell-impermeable DNA probe propidium iodide (PI) (Di Pasquale et al., 2010; Oyama et al., 2017). PI can interact with DNA/RNA, leading to increase in fluorescence of the molecule. The bacterial membrane is impermeable to PI preventing its interaction with intracellular DNA/RNA. Thus, fluorescence of PI (expressed as RFU: relative fluorescence unit) only increases if membrane integrity is compromised through pore-formation. We measured the time-dependent effect of our peptide and other molecules on PI fluorescence at 37° C., all molecules being tested at 3 times their MIC. […] Kinetics of fluorescence variations (excitation at 530 nm/emission at 590 nm) were recorded using a microplate reader (SynergyMx, Bioteck) over 80 min period at 37° C. […] The permeabilization effect of the tested compound (i.e., Michelicin, Alvinellacin, Arenicin, and control, PMB or CTAB) was expressed as percentage of total permeabilization caused by CTAB.

Where two headings read alike, the source gives them in different places. Positions of bridges follow the written chain, without caps; N, C: chain ends. Residues, ends and D or L forms follow the SMILES beside them.

As for `CO/N=C1\CN(c2nc3c(cc2F)c(=O)c(C(=O)O)cn3C2CC2)CC1CN` (centres unmarked) [Gemifloxacin], the “Resistance induction / fold increase in initial MIC (in words)” value in [1] was “relevant”.

Usually MIC stands for the smallest concentration in the dilution series that meets the test's criterion for growth inhibition. A low value points to inhibition by little substance. For orientation: viability means a read-out of living cells in per cent, often relative to untreated cells. As to `CC[C@H](C)[C@@H]1NC(=O)[C@H](CCCNC(=N)N)NC(=O)[C@H](C(C)C)NC(=O)[C@@H](NC(=O)[C@@H](NC(=O)[C@@H](N)CCCNC(=N)N)C(C)C)CSSC[C@@H](C(=O)N[C@@H](Cc2c[nH]c3ccccc23)C(=O)N[C@@H](CC(N)=O)C(=O)N[C@H](C(=O)O)[C@@H](C)O)NC(=O)[C@H](CCCNC(=N)N)NC(=O)[C@H](CCCNC(=N)N)NC(=O)[C@H](Cc2ccc(O)cc2)NC(=O)[C@@H]2CSSC[C@H](NC1=O)C(=O)N[C@@H](CCCNC(=N)N)C(=O)N[C@@H](CC(N)=O)C(=O)NCC(=O)N[C@@H](CCCNC(=N)N)C(=O)N2` [Michelicin, RVC1VRIC2RNGRC3YRRC4WNT] (H-RVCVRICRNGRCYRRCWNT-OH; disulfide 3-16, 7-12), the “MIC with 565 mM NaCl” value in [2] lay in the range of 0.62 to 1.25 µM. For the same compound, in [2], the “V. alginolyticus MIC” value fell in the range of 1.25 to 2.5 µM. Besides, the figures for the MIC in data set [2] (24 h) and in [9] were 0.07 to 0.15 µM and 12.3 to 13.0 µM, respectively. The “P. aeruginosa MIC” value in data set [3] is 2.5 to 5 µM. For the same compound, in [4], the “Cytotoxic activity towards HUVEC cells” value is reported as “not observed”. In addition, the “Cytotoxic activity towards BEAS cells” value in data set [5] is recorded as “not observed”. Also, the viability at 48 h, 80 µM in [6] (BEAS human bronchial epithelial cells (ATCC CRL-9609), read-out: % of viability, BEAS cells) worked out at 100%; in [6] (HUVEC (human umbilical vein endothelial cells), read-out: % of viability, HUVEC cells) it was 95%. The “M. smegmatis mc^2155 MIC” value in [7] was 0.57 to 2.15 µM. The Effect on hemolysis result in [8] (1.2 to 40 μM, 60 min at 37° C., FIG. 2) is reported as “far less than the effect of Arenicin”. Also, the Hemolytic activity result in data set [8] (even at doses>80 μM) is “not observed”. For the same compound, the “M. tuberculosis mc^26230 MIC” value in data set [9] was 12.3 to 13.0 µM. Besides, in data set [10], the “Cytotoxic activity towards IMR90 cells” value was “not observed”.

Consider `CC[C@H](C)[C@@H]1NC(=O)[C@H](CCCNC(=N)N)NC(=O)[C@H](C(C)C)NC(=O)[C@@H](NC(=O)[C@@H](NC(=O)[C@@H](N)CCCNC(=N)N)C(C)C)CSSC[C@@H](C(=O)N[C@@H](Cc2c[nH]c3ccccc23)C(=O)N[C@@H](CC(N)=O)C(=O)N[C@H](C(=O)O)[C@@H](C)O)NC(=O)[C@H](CCCCN)NC(=O)[C@H](CCSC)NC(=O)[C@H](Cc2ccccc2)NC(=O)[C@@H]2CSSC[C@H](NC1=O)C(=O)N[C@@H](CCCNC(=N)N)C(=O)N[C@@H](CC(N)=O)C(=O)NCC(=O)N[C@@H](Cc1ccccc1)C(=O)N2` [V8, RVC1VRIC2RNGFC3FMKC4WNT] (H-RVCVRICRNGFCFMKCWNT-OH; disulfide 3-16, 7-12; N-terminus and C-terminus assumed), for which the “V. alginolyticus MIC” value in [2] lay in the range of 0.125 to 0.312 µM. Further, in [3], the “P. aeruginosa MIC” value was in the range of 1.25 to 2.5 µM. Further, the “M. smegmatis mc^2155 MIC” value in data set [7] was in the range of 0.72 to 3.92 µM. In data set [9], the “M. tuberculosis mc^26230 MIC” value fell in the range of 7.3 to 11.9 µM.

For the compound `CSCC[C@@H]1NC(=O)[C@H](Cc2ccccc2)NC(=O)[C@@H]2CSSC[C@H](NC(=O)[C@H](C(C)C)NC(=O)[C@H](CCCNC(=N)N)NC(=O)[C@H](C(C)C)NC(=O)[C@@H](NC(=O)[C@@H](NC(=O)[C@@H](N)CCCNC(=N)N)C(C)C)CSSC[C@@H](C(=O)N[C@@H](Cc3c[nH]c4ccccc34)C(=O)N[C@@H](CC(N)=O)C(=O)N[C@H](C(=O)O)[C@@H](C)O)NC(=O)[C@H](CCCCN)NC1=O)C(=O)N[C@@H](CCCNC(=N)N)C(=O)N[C@@H](CC(N)=O)C(=O)NCC(=O)N[C@@H](Cc1ccccc1)C(=O)N2` [V9, RVC1VRVC2RNGFC3FMKC4WNT] (H-RVCVRVCRNGFCFMKCWNT-OH; disulfide 3-16, 7-12; N-terminus and C-terminus assumed), the “V. alginolyticus MIC” value in [2] lay within 0.125 to 0.312 µM. Moreover, the “P. aeruginosa MIC” value in data set [3] lay within 1.25 to 2.5 µM. In addition, the “M. smegmatis mc^2155 MIC” value in data set [7] was 1.02 to 3.31 µM. In addition, the “M. tuberculosis mc^26230 MIC” value in data set [9] was 5.1 to 9.1 µM.

For Nisin, the figures for the “MIC Nisin” value in [11] and in data set [12] were “MIC (Nisin 3 μg/mL)” and “(MIC Nisin < 0.09 μg/mL)”, respectively.

polymyxin B [PMB]: in data set [13], the “Permeabilization (percentage of total permeabilization caused by CTAB)” value was 2-5%.

Values taken from patent US20250051403A1, “ANTIMICROBIAL PEPTIDES, VARIANTS AND CHEMICAL ANALOGUES THEREOF AND THEIR USES” (priority 2021, published 2025).
